For this test, the target named is T1, Human Nav1.7 (Homo sapiens, UniProt Q15858).
T1 construct: expressed in transfected cells; host or cells: Spiking HEK cells (without Kir2.1 transfection)
T1 sequence (Q15858 whole entry): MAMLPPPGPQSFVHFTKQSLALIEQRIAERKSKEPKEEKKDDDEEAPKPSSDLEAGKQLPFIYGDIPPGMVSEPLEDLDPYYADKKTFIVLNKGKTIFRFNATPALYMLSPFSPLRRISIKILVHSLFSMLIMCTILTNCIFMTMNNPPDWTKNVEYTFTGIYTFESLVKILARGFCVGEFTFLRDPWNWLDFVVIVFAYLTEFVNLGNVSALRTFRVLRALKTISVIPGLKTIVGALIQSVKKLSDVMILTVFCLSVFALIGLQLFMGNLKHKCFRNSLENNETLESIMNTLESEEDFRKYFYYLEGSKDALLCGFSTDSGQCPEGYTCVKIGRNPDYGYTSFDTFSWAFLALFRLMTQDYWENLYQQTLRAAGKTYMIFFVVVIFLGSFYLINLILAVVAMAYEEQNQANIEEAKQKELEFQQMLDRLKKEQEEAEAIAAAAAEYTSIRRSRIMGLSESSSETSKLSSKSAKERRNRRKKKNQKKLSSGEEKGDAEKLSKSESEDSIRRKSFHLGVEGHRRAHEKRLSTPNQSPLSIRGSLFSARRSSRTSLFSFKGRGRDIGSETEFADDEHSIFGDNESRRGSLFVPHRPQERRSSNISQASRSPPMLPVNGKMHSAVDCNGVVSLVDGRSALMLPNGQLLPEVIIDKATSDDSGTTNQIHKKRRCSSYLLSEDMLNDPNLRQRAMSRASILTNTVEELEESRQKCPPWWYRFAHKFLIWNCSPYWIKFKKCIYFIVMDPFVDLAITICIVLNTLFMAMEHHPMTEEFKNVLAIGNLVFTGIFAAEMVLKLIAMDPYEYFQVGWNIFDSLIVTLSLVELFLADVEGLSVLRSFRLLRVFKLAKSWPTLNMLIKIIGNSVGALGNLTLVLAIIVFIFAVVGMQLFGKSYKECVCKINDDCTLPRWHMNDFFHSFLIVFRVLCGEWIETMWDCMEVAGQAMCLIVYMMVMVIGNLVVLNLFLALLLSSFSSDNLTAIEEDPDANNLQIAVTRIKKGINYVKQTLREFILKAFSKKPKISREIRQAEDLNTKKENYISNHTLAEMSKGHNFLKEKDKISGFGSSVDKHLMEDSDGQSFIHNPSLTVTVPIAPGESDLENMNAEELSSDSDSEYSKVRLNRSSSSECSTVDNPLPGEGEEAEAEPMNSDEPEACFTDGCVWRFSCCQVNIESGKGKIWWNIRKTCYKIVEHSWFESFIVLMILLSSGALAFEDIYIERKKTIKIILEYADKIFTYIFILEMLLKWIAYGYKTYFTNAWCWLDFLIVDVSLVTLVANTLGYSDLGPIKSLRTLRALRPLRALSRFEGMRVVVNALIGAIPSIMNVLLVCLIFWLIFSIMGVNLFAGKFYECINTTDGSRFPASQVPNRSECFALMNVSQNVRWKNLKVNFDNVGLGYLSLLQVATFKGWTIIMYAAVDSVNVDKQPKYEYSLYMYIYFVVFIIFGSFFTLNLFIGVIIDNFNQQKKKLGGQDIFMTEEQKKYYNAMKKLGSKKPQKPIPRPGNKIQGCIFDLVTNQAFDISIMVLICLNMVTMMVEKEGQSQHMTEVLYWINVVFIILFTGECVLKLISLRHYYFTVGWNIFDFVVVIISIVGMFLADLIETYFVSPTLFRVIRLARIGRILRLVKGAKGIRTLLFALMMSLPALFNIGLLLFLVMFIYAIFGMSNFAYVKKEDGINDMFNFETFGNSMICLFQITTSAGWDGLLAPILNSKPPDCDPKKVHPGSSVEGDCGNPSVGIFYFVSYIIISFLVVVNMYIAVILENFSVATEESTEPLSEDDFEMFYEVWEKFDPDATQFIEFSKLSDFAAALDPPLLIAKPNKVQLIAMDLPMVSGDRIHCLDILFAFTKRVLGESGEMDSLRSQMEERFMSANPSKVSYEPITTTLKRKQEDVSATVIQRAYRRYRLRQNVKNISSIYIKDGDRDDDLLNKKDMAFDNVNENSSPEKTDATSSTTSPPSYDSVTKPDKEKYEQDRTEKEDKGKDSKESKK
Briefly: IonWorks Barracuda (IWB) automated patch clamp assay. Particulars: human Nav1.7 currents, HEK cells, population patch-clamp, state- and use-dependent voltage protocol; read-out: hNaV1.7 IWB-U IC50. The format is cell-based. The method, then: Ionaworks Barracuda […] Automated Patch Clamp Assay (Same Protocol for Both Human and Mouse)
Human Nav1.7 currents were recorded in population patch-clamp mode with the IWB automated electrophysiology system (Molecular Devices, LLC, Sunnyvale, Calif.). Spiking HEK cells (without Kir2.1 transfection) were cultured and prepared for recordings as previously described for IonWorks Quattro testing^1. The external solution consisted of the following (in mM): NaCl 140, KCl 5, CaCl2 2, MgCl2 1, HEPES 10, and glucose 11, pH 7.4, with N-methyl-D-glucamine at 320 mOsmol. […] From a holding potential of −110 mV, currents were elicited by a train of 26 depolarizations of 150 ms duration to −20 mV at a frequency of 5 Hz. Cells were then clamped to −20 mV for a period of 4 minutes in the presence of a single concentration of test compound. Following this compound incubation period, cells were clamped to −110 mV for three seconds to recover unbound channels and put through the same 26 pulse voltage protocol as above. Peak inward current during the 26th pulse to −20 mV in the presence of compound was divided by the peak inward current evoked by the 26th pulse to −20 mV in the absence of compound to determine percent inhibition. Concentration-response curves of percent inhibition as a function of concentration were generated to calculate IC50 values as described in Kornecook, T. J.; Yin, R.; Altmann, S.; et al. Pharmacologic Characterization of AMG8379, a Potent and Selective Small Molecule Sulfonamide Antagonist of the Voltage-Gated Sodium Channel NaV1. 7.
The potency of the compounds of the present invention were evaluated on human Nav1.7 channels using the above described IonWorks Barracuda automated electrophysiology platform that evaluates the ability of compounds to block sodium conductance through Nav1.7 channels. A voltage-protocol that prosecutes both state-dependent as well as use-dependent inhibition was used as these modes of action are thought to be more relevant for the native state of Nav1.7 channels in pain sensing neurons in vivo.
On the technique in general: Patch clamp records ionic current or voltage across a cell membrane.
Take `COc1cc(C2CCC2)c(F)cc1-n1c(=O)ccc2cc(S(=O)(=O)Nc3cccnn3)ccc21` (atropisomer, axis not shown; (P)) [Example 23, (P)-1-(4-cyclobutyl-5-fluoro-2-methoxyphenyl)-2-oxo-N-(pyridazin-3-yl)-1,2-dihydroquinoline-6-sulfonamide]: the IC50 is 102 nM.

On to `COc1cc(C2CC(C(C)(C)C)C2)c(F)cc1-n1c(=O)ccc2cc(S(=O)(=O)Nc3ccon3)ccc21` (atropisomer, axis not shown; (P)) [Example 3, (P)-1-(4-(3-(tert-butyl)cyclobutyl)-5-fluoro-2-methoxyphenyl)-N-(isoxazol-3-yl)-2-oxo-1,2-dihydroquinoline-6-sulfonamide], for which the IC50 came to 33 nM.

With `COc1cc([C@H]2C[C@](F)(C(F)(F)F)C2)c(F)cc1-n1c(=O)ccc2cc(S(=O)(=O)Nc3ccon3)ccc21` (atropisomer, axis not shown; (P)) [Example 9, cis-(P)-1-(5-fluoro-4-(3-fluoro-3-(trifluoromethyl)cyclobutyl)-2-methoxyphenyl)-N-(isoxazol-3-yl)-2-oxo-1,2-dihydroquinoline-6-sulfonamide], the IC50 came out at 2 nM.

As to `COc1cc(C2CCC2)ccc1-n1c(=O)ccc2cc(S(=O)(=O)Nc3ccon3)ccc21` (atropisomer, axis not shown; (P)) [Example 25, (P)-1-(4-cyclobutyl-2-methoxyphenyl)-N-(isoxazol-3-yl)-2-oxo-1,2-dihydroquinoline-6-sulfonamide], the IC50 was found to be 37 nM.

As for `COc1cc([C@H]2C[C@@](F)(C(F)(F)F)C2)c(Cl)cc1-n1c(=O)ccc2cc(S(=O)(=O)Nc3ccon3)ccc21` (atropisomer, axis not shown; (P)) [Example 11, trans-(P)-1-(5-chloro-4-(3-fluoro-3-(trifluoromethyl)cyclobutyl)-2-methoxyphenyl)-N-(isoxazol-3-yl)-2-oxo-1,2-dihydroquinoline-6-sulfonamide], the half-maximal inhibitory concentration (IC50) came to 2 nM.

Take `COc1cc([C@H]2C[C@H](C(F)(F)F)C2)ccc1-n1c(=O)ccc2cc(S(=O)(=O)Nc3ccon3)ccc21` (atropisomer, axis not shown; (P)) [Example 35, trans-(P)—N-(isoxazol-3-yl)-1-(2-methoxy-4-(3-(trifluoromethyl)cyclobutyl)phenyl)-2-oxo-1,2-dihydroquinoline-6-sulfonamide]: the IC50 was found to be 20 nM.

`COc1cc([C@H]2C[C@H](C(F)(F)F)C2)c(F)cc1-n1c(=O)ccc2cc(S(=O)(=O)Nc3ncco3)ccc21` (atropisomer, axis not shown; (P)) [Example 43, Trans-(P)-1-(5-Fluoro-2-Methoxy-4-(3-(Trifluoromethyl)Cyclobutyl)Phenyl)-N-(Oxazol-2-Yl)-2-Oxo-1,2-Dihydroquinoline-6-Sulfonamide]: the 50% inhibitory concentration (IC50) was found to be 7 nM.

Regarding `COc1cc([C@H]2C[C@H](C(F)(F)F)C2)ccc1-n1c(=O)ccc2cc(S(=O)(=O)Nc3ncccn3)ccc21` (atropisomer, axis not shown; (P)) [Example 36, trans-(P)-1-(2-methoxy-4-((1R,3R)-3-(trifluoromethyl)cyclobutyl)phenyl)-2-oxo-N-(pyrimidin-2-yl)-1,2-dihydroquinoline-6-sulfonamide], the 50% inhibitory concentration (IC50) stood at 14 nM.

For `COc1cc([C@H]2C[C@H](OC(F)(F)F)C2)c(F)cc1-n1c(=O)ccc2cc(S(=O)(=O)Nc3ccon3)ccc21` (single isomer, unassigned) [Example 45, trans-(P)-1-(5-fluoro-2-methoxy-4-(3-(trifluoromethoxy)cyclobutyl)phenyl)-N-(isoxazol-3-yl)-2-oxo-1,2-dihydroquinoline-6-sulfonamide], the IC50 came to 8 nM.

Take `COc1cc(C2CCC2)c(F)cc1-n1c(=O)ccc2cc(S(=O)(=O)Nc3ncccn3)ccc21` (atropisomer, axis not shown; (P)) [Example 28, (P)-1-(4-cyclobutyl-5-fluoro-2-methoxyphenyl)-2-oxo-N-(pyrimidin-2-yl)-1,2-dihydroquinoline-6-sulfonamide]: the IC50 was 54 nM.

As a reminder, the IC50 is the point on the concentration scale where inhibition reaches its midpoint.

The values above are taken from patent US20210387978A1, “CYCLOBUTYL DIHYDROQUINOLINE SULFONAMIDE COMPOUNDS” (AMGEN INC., priority 2020, published 2021).
